Values of other authors, collected in patent US20200338057A1, “Methods of Treating Prostate Cancer Based on Molecular Subtypes” (Janssen Pharmaceutica NV, priority 2019, published 2020).

Assays:
[1] = test system: noncastrate hormone-sensitive and bicalutamide-resistant human prostate cancer xenograft models; settings: noncastrate hormone-sensitive and bicalutamide-resistant human prostate cancer xenografts

Row | AR binding affinity (AR) | Compound | Tumor response in xenograft models [1]
1 | high affinity | CC(O)c1cc(C(=O)N[C@@H](C)Cn2ccc(-c3ccc(C#N)c(Cl)c3)n2)[nH]n1 (some centres unmarked) [Darolutamide, darolutamide] | 
2 |  | CNC(=O)c1ccc(N2C(=S)N(c3cnc(C#N)c(C(F)(F)F)c3)C(=O)C23CCC3)cc1F [Apalutamide, 4-[7-(6-cyano-5-trifluoromethylpyridin-3-yl)-8-oxo-6-thioxo-5,7-diazaspiro[3.4]oct-5-yl]-2-fluoro-N-methylbenzamide] | partial or complete tumor regression
